Measurements from ChEMBL document CHEMBL3751781, “Three-dimensional QSAR analysis and design of new 1,2,4-oxadiazole antibacterials” (2016).
≈ marks a conversion by molar mass, not a printed value.

Test system: Staphylococcus aureus
Experiment: Antibacterial against Staphylococcus aureus
Type: functional
Conditions: for MIC: Staphylococcus aureus

Row | SMILES | MIC [µg/mL] | -logMIC
1 | Brc1c[nH]nc1-c1nc(-c2ccc(Oc3ccccc3)cc2)no1 | – | 5.949
2 | O=[N+]([O-])c1c[nH]nc1-c1nc(-c2ccc(Oc3ccccc3)cc2)no1 | – | 5.163
3 | Oc1ccc(-c2nc(-c3ccc(Oc4ccccc4)cc3)no2)cc1 | – | 5.8
4 | O=[N+]([O-])c1c(F)cc(-c2nc(-c3ccc(Oc4ccccc4)cc3)no2)cc1F | 128 (≈ 324 µM) | 1.128
5 | Nc1c[nH]nc1-c1nc(-c2ccc(Oc3ccccc3)cc2)no1 | – | 2.994
6 | Nc1cc(-c2nc(-c3ccc(Oc4ccc(F)cc4)cc3)no2)cnc1O | 128 (≈ 351 µM) | 1.046
7 | NS(=O)(=O)c1ccc(-c2nc(-c3ccc(Oc4ccc(F)cc4)cc3)no2)cc1 | 128 (≈ 311 µM) | 1.168
8 | CCC(C)Nc1c[nH]nc1-c1nc(-c2ccc(Oc3ccc(C(F)(F)F)cc3)cc2)no1 (stereo not drawn) | 128 (≈ 289 µM) | 1.243
9 | Oc1ccccc1-c1nc(-c2ccc(Oc3ccccc3)cc2)no1 | 128 (≈ 387 µM) | 0.948
10 | OCC#Cc1c[nH]nc1-c1nc(-c2ccc(Oc3ccc(C(F)(F)F)cc3)cc2)no1 | – | 4.669
11 | Cc1nc(-c2ccc(Oc3ccc(C(F)(F)F)cc3)cc2)no1 | 128 (≈ 400 µM) | 0.917
12 | Oc1ccc(-c2nc(-c3ccc(Oc4ccc(F)cc4)cc3)no2)cc1F | – | 5.21
13 | Oc1ccc(-c2nc(-c3ccc(F)cc3)no2)cc1 | 128 (≈ 500 µM) | 0.694
14 | FC(F)(F)c1ccc(Oc2ccc(-c3noc(-c4c[nH]c5ncccc45)n3)cc2)cc1 | 128 (≈ 303 µM) | 1.194
15 | Oc1ccc(-c2nc(-c3ccc(Oc4ccc(C(F)(F)F)cc4)cc3)no2)cc1F | – | 5.338
16 | Fc1ccc(Oc2ccc(-c3noc(-c4n[nH]cc4Cl)n3)cc2)cc1Cl | 2 (≈ 5.11 µM) | 5.276
17 | Oc1ccc(-c2nc(-c3ccc(Oc4ccccc4)cc3)no2)cc1F | – | 4.467
18 | O=P(O)(O)c1ccc(-c2nc(-c3ccc(Oc4ccc(F)cc4)cc3)no2)cc1 | 128 (≈ 310 µM) | 1.17
19 | O=[N+]([O-])c1ccc(-c2nc(-c3ccc(Oc4ccccc4)cc3)no2)cc1 | 128 (≈ 356 µM) | 1.032
20 | O=[N+]([O-])c1cc(-c2nc(-c3ccc(Oc4ccc(C(F)(F)F)cc4)cc3)no2)cnc1O | – | 4.017
21 | Oc1ccc(-c2nc(-c3ccc(Oc4ccccc4)c(F)c3)no2)cc1 | 8 (≈ 23 µM) | 3.774
22 | FC(F)(F)c1ccc(Oc2ccc(-c3noc(-c4n[nH]cc4NC4CCCC4)n3)cc2)cc1 | 128 (≈ 281 µM) | 1.269
23 | Ic1c[nH]nc1-c1nc(-c2ccc(Oc3ccccc3)cc2)no1 | – | 6.064
24 | O=[N+]([O-])c1cc(-c2nc(-c3ccc(Oc4ccc(F)cc4)cc3)no2)cnc1O | – | 3.898
25 | c1ccc(Oc2ccc(-c3noc(-c4ccc5[nH]ccc5c4)n3)cc2)cc1 | 4 (≈ 11.3 µM) | 5.174

Row | SMILES | MIC [µg/mL] | -logMIC
26 | Oc1c(F)cc(-c2nc(-c3ccc(Oc4ccc(C(F)(F)F)cc4)cc3)no2)cc1F | – | 5.381
27 | FC(F)(F)c1ccc(Oc2ccc(-c3noc(-c4n[nH]cc4I)n3)cc2)cc1 | – | 5.518
28 | Fc1ccc(Oc2ccc(-c3noc(-c4n[nH]cc4Cl)n3)cc2)cc1F | 0.5 (≈ 1.33 µM) | 6.619
29 | FC(F)(F)c1ccc(Oc2ccc(-c3noc(-c4n[nH]cc4Cl)n3)cc2)cc1 | – | 6.008
30 | Nc1c[nH]nc1-c1nc(-c2ccc(Oc3ccc(C(F)(F)F)cc3)cc2)no1 | – | 4.573
31 | O=[N+]([O-])c1cc(-c2noc(-c3ccc(O)cc3)n2)ccc1Oc1ccccc1 | 8 (≈ 21.3 µM) | 3.848
32 | C#Cc1c[nH]nc1-c1nc(-c2ccc(Oc3ccc(C(F)(F)F)cc3)cc2)no1 | 0.25 (≈ 0.631 µM) | 7.369
33 | Oc1ccc(-c2nc(-c3ccc(Oc4ccccc4)c(Cl)c3)no2)cc1 | 2 (≈ 5.48 µM) | 5.206
34 | FC(F)(F)c1ccc(Oc2ccc(-c3noc(-c4cc[nH]n4)n3)cc2)cc1 | 128 (≈ 344 µM) | 0.923
35 | Oc1ccc(-c2nc(-c3ccc(Oc4ccccc4CBr)cc3)no2)cc1 | 8 (≈ 18.9 µM) | 3.969
36 | Nc1c[nH]nc1-c1nc(-c2ccc(Oc3ccc(F)cc3)cc2)no1 | – | 3.048
37 | N#Cc1c[nH]nc1-c1nc(-c2ccc(Oc3ccc(C(F)(F)F)cc3)cc2)no1 | – | 5.292
38 | O=C(O)c1ccc(Oc2ccc(-c3noc(-c4ccc(O)cc4)n3)cc2)cc1 | 64 (≈ 171 µM) | 1.766
39 | Nc1c[nH]c(-c2nc(-c3ccc(Oc4ccc(F)cc4)cc3)no2)c1 | 128 (≈ 381 µM) | 0.966
40 | Fc1ccc(Oc2ccc(-c3noc(-c4cc[nH]c4)n3)cc2)cc1 | 128 (≈ 398 µM) | 0.92
41 | Nc1c(F)cc(-c2nc(-c3ccc(Oc4ccc(C(F)(F)F)cc4)cc3)no2)cc1F | 2 (≈ 4.62 µM) | 5.378
42 | CCCCNc1c[nH]nc1-c1nc(-c2ccc(Oc3ccc(C(F)(F)F)cc3)cc2)no1 | 128 (≈ 289 µM) | 1.243
43 | Oc1ccc(-c2nc(-c3ccc(Oc4ccc(C(F)(F)F)cc4)cc3)no2)cc1 | – | 5.987
44 | c1ccc(Oc2ccc(-c3noc(-c4ccncc4)n3)cc2)cc1 | 128 (≈ 406 µM) | 0.902
45 | O=C(Nc1c[nH]nc1-c1nc(-c2ccc(Oc3ccc(C(F)(F)F)cc3)cc2)no1)c1ccccc1 | 128 (≈ 260 µM) | 1.345
46 | O=C(O)c1cccc(Oc2ccc(-c3noc(-c4ccc(O)cc4)n3)cc2)c1 | 64 (≈ 171 µM) | 1.766
47 | Nc1ccc(-c2nc(-c3ccc(Oc4ccc(C(F)(F)F)cc4)cc3)no2)cc1 | – | 5.985
48 | Oc1ccc(-c2nc(-c3ccc(Oc4ccc(Br)cc4)cc3)no2)cc1 | 2 (≈ 4.89 µM) | 5.321
49 | Nc1c(F)cc(-c2nc(-c3ccc(Oc4ccccc4)cc3)no2)cc1F | – | 3.821
50 | COC(=O)c1ccc(-c2nc(-c3ccc(Oc4ccc(F)cc4)cc3)no2)cc1 | 128 (≈ 328 µM) | 1.115

The remaining compounds from weak to strong by MIC, led by results:

Row | MIC [µg/mL] | SMILES | -logMIC
51 | 128 (≈ 332 µM) | O=C1COc2cc(-c3nc(-c4ccc(Oc5ccccc5)cc4)no3)ccc2N1 | 1.102
52 | 128 (≈ 341 µM) | NC(=O)c1ccc(-c2nc(-c3ccc(Oc4ccc(F)cc4)cc3)no2)cc1 | 1.158
53 | 128 (≈ 321 µM) | Nc1cncc(-c2nc(-c3ccc(Oc4ccc(C(F)(F)F)cc4)cc3)no2)c1 | 1.135
54 | 128 (≈ 276 µM) | O=[N+]([O-])c1c(F)cc(-c2nc(-c3ccc(Oc4ccc(C(F)(F)F)cc4)cc3)no2)cc1F | 1.286
55 | 128 (≈ 367 µM) | Oc1ccc(Oc2ccc(-c3noc(-c4ccc(F)cc4)n3)cc2)cc1 | 1.001
56 | 128 (≈ 349 µM) | O=[N+]([O-])c1c[nH]c(-c2nc(-c3ccc(Oc4ccc(F)cc4)cc3)no2)c1 | 1.052
57 | 128 (≈ 299 µM) | O=P(O)(O)Oc1ccc(Oc2ccc(-c3noc(-c4ccc(F)cc4)n3)cc2)cc1 | 1.208
58 | 128 (≈ 387 µM) | COc1ccc(-c2nc(-c3ccc(Br)cc3)no2)cc1 | 0.951
59 | 128 (≈ 277 µM) | NS(=O)(=O)c1ccc(-c2nc(-c3ccc(Oc4ccc(C(F)(F)F)cc4)cc3)no2)cc1 | 1.282
60 | 128 (≈ 273 µM) | FC(F)(F)c1ccc(Oc2ccc(-c3noc(-c4n[nH]cc4NC4CCCCC4)n3)cc2)cc1 | 1.3
61 | 128 (≈ 533 µM) | Fc1ccc(-c2nc(-c3ccccc3)no2)cc1 | 0.63
62 | 128 (≈ 344 µM) | Fc1ccc(Oc2ccc(-c3noc(-c4c[nH]c5ncccc45)n3)cc2)cc1 | 1.068
63 | 128 (≈ 329 µM) | COc1ccc(-c2nc(-c3ccc(Oc4ccccc4)cc3)no2)cc1[N+](=O)[O-] | 1.113
64 | 128 (≈ 386 µM) | Oc1ccc(-c2nc(-c3ccc(Oc4ccncc4)cc3)no2)cc1 | 0.951
65 | 128 (≈ 326 µM) | COc1ccc(-c2nc(-c3ccc(Oc4ccc(F)cc4)cc3)no2)cc1OC | 1.12
66 | 128 (≈ 339 µM) | O=[N+]([O-])c1ccc(-c2nc(-c3ccc(Oc4ccccc4)cc3)no2)cc1F | 1.081
67 | 128 (≈ 252 µM) | CCOP(=O)(OCC)c1c[nH]nc1-c1nc(-c2ccc(Oc3ccc(C(F)(F)F)cc3)cc2)no1 | 1.379

Row | MIC [µg/mL] | SMILES | -logMIC
68 | 128 (≈ 503 µM) | Oc1ccc(-c2noc(-c3ccc(O)cc3)n2)cc1 | 0.686
69 | 128 (≈ 260 µM) | O=C(Nc1c[nH]nc1-c1nc(-c2ccc(Oc3ccc(C(F)(F)F)cc3)cc2)no1)c1ccccn1 | 1.347
70 | 128 (≈ 385 µM) | Fc1ccc(-c2nc(-c3ccc(Oc4ccccc4)cc3)no2)cc1 | 0.954
71 | 128 (≈ 302 µM) | Oc1ccc(-c2nc(-c3ccc(Oc4ccc(CBr)cc4)cc3)no2)cc1 | 1.196
72 | 128 (≈ 269 µM) | CS(=O)(=O)Nc1ccc(-c2nc(-c3ccc(Oc4ccc(C(F)(F)F)cc4)cc3)no2)cc1 | 1.312
73 | 128 (≈ 386 µM) | Oc1ccc(-c2nc(-c3ccc(Oc4cccnc4)cc3)no2)cc1 | 0.951
74 | 32 (≈ 92.4 µM) | Oc1ccc(Oc2ccc(-c3noc(-c4ccc(O)cc4)n3)cc2)cc1 | 2.382
75 | 8 (≈ 22.5 µM) | Nc1c[nH]nc1-c1nc(-c2ccc(Oc3ccc(F)c(F)c3)cc2)no1 | 3.794
76 | 4 (≈ 9.38 µM) | O=C(c1cccc(Oc2ccc(-c3noc(-c4ccc(O)cc4)n3)cc2)c1)C(F)(F)F | 4.669
77 | 4 (≈ 9.77 µM) | Oc1ccc(-c2nc(-c3ccc(Oc4cccc(Br)c4)cc3)no2)cc1 | 4.628
78 | 4 (≈ 10.7 µM) | O=[N+]([O-])c1ccccc1Oc1ccc(-c2noc(-c3ccc(O)cc3)n2)cc1 | 4.542
79 | 2 (≈ 5.55 µM) | COc1ccc(Oc2ccc(-c3noc(-c4ccc(O)cc4)n3)cc2)cc1 | 5.194
80 | 2 (≈ 5.39 µM) | [N-]=[N+]=Nc1ccc(Oc2ccc(-c3noc(-c4ccc(O)cc4)n3)cc2)cc1 | 5.224
81 | 2 (≈ 5.39 µM) | Fc1ccc(Oc2ccc(-c3noc(-c4ccc5[nH]ccc5c4)n3)cc2)cc1 | 5.224
82 | 1 (≈ 2.15 µM) | Clc1c[nH]nc1-c1nc(-c2ccc(Oc3ccc(I)cc3)cc2)no1 | 6.141
83 | 1 (≈ 2.39 µM) | Fc1ccc(Oc2ccc(-c3noc(-c4n[nH]cc4Br)n3)cc2)cc1F | 6.038
84 | 1 (≈ 2.45 µM) | Clc1ccc(Oc2ccc(-c3noc(-c4n[nH]cc4Cl)n3)cc2)cc1Cl | 6.01
